The values below come from US8436039B2, “Inhibitors of the ATB(0,+) transporter and uses thereof” (Georgia Health Sciences University Research Institute, Inc., priority 2008, dated 2013).

For data set [1], the system named is MCF7 cells. The experiment in a line: Colony formation assay, dose-response in MCF7 cells. Conditions: Homo sapiens, same assay conditions, read-out: IC50 for inhibition of colony formation. Format: cell-based. The protocol: (§1) The colony formation assay was performed as described previously (Thangaraju et al., 2006, Cancer Res. 66, 11560-11564). Mammary epithelial cells were seeded on to 6-well plates (10000 cells per well) in DMEM. After 24 hours, cells were exposed to varying concentrations of α-methyl-DL-tryptophan or 1-methyl-DL-tryptophan for 2 weeks, changing medium every 2 days. Cells were washed with PBS and fixed in 100% (v/v) methanol for 30 min followed by staining with KaryoMAX Giemsa stain for one hour. The wells were washed with water and dried overnight at room temperature. Finally, the dye in the wells was dissolved with 1% SDS in 0.2 M NaOH for one hour, and the attenuance of the released dye was measured at 630 nm.
(§2) The present studies have identified α-methyl-DL-tryptophan as a blocker of ATB^0,+ and also have shown that the compound is able to block the transport of amino acids via ATB^0,+ under conditions that stimulate those in vivo in terms of amino acid concentrations. […] For this, we treated the human mammary epithelial cell lines with 2.5 mM α-methyl-DL-tryptophan in the presence of regular culture medium for 12 days in clonogenic assay and quantified the colony formation for each cell line in the presence and absence of α-methyl-DL-tryptophan (FIG. 8). […]

The subject of data set [2] is MCF7 cells. The experiment in a line: Cell cycle analysis (FACS, propidium iodide) in MCF7 cells. Conditions: 2.5 mM; 24 hours. It is filed as cell-based, human. As for the experimental part: MCF10A (an ATB^0,+-negative non-malignant cell line), MCF7 (an ATB^0,+-positive malignant cell line) and MDA-MB453 (an ATB^0,+-negative malignant cell line) cells were cultured in 6-well plates in a regular culture medium in the presence or absence of α-methyl-DL-tryptophan (2.5 mM) for 24, 48 and 72 hours. Cells were fixed in 50% (v/v) ethanol, treated with 0.1% sodium citrate, 1 mg/ml RNase A and 50 μg/ml propidium iodide, and subjected to FACS (Becton Dickinson FACSCalibur™) analysis. The amount of DNA in these cells, detected as chromosome content by propidium iodide binding, was used to identify cells in various stages of cell cycle: G1/G0, 2N; S, 2-4 N; G2/M, 4N (where N is the normal chromosome content).
Since treatment with α-methyl-DL-tryptophan suppressed colony formation in malignant cell lines in an ATB^0,+-dependent manner, we investigated the influence of this treatment on cell cycle to determine which stage of the cycle is affected. We used three different cell lines in this experiment: MCF10A (non-malignant and ATB^0,+-negative), MCF7 (malignant and ATB^0,+-positive) and MDA-MB453 (malignant and ATB^0,+-negative) (FIG. 9). […] In contrast, the treatment affected the cell cycle progression in the ATB^0,+-positive MCF7 cell line. The cells were arrested at G1/G0 stage to a significant extent when treated with α-methyl-DL-tryptophan. […]

Data set [3] has as its system MCF7, T-47D and ZR-75.1 cells. As to the kind of experiment: Colony formation assay, malignant ATB^0,+-positive mammary epithelial cell lines. Format: cell-based. Particulars: Homo sapiens, 288 h, 2.5 mM, 12 days, regular culture medium. As for the experimental part: as §1, §2
The subject of data set [4] is MDA-MB231, MDA-MB361 and MDA-MB453 cell lines. As to the kind of experiment: Colony formation assay, malignant ATB^0,+-negative mammary epithelial cell lines. Format: cell-based, human. Conditions: 2.5 mM, 12 days, no or very low ATB^0,+. The protocol:
as §1, §2

For data set [5], the system named is HMEC, HBL100 and MCF10A cells. As to the kind of experiment: Colony formation assay, non-malignant ATB^0,+-negative mammary epithelial cell lines. Format: cell-based, human. Conditions: 2.5 mM, 12 days. As for the experimental part:
as §1, §2

The conditions of data set [6]: mice; 2 mg/ml in drinking water; cited from earlier work.

One may read the IC50 as the midpoint of a concentration-inhibition curve. What is called inhibition is the percentage by which the read-out fell short of the control. A lower inhibition goes with a weak effect.

As for `CC(N)(Cc1c[nH]c2ccccc12)C(=O)O` (racemic) [α-methyl-DL-tryptophan], the concentration for half-maximal inhibition (IC50) in data set [1] was 160 ± 15 µM. Besides, in data set [2], the “percentage of MCF7 cells in G1/G0-phase” value amounted to 82±1 percentage and the “percentage of MCF7 cells in S-phase” value was determined as 3±1 percentage. For the same compound, the inhibition at 2500 µM in data set [3] is 60 to 75%. In data set [4], the “effect on colony formation” value is given as “little or no effect”. Further, in data set [5], the “effect on ability to form colonies” value was “no effect”.
Turning to `Cn1cc(C[C@@H](N)C(=O)O)c2ccccc21` [1-methyl-D-tryptophan], the plasma levels in data set [6] is 35 to 40 µM.
